Assays:
PKC epsilon = molecular target: T1, PKC epsilon (Homo sapiens, UniProt Q02156); assay: PKC assay, fluorescence polarization (Example 2), PKC epsilon; assay type: biochemical; settings: 5 μM ATP
T1 construct: purchased Upstate Biotechnologies, Temecula, CA 14-518
T1 sequence (Q02156 1-737): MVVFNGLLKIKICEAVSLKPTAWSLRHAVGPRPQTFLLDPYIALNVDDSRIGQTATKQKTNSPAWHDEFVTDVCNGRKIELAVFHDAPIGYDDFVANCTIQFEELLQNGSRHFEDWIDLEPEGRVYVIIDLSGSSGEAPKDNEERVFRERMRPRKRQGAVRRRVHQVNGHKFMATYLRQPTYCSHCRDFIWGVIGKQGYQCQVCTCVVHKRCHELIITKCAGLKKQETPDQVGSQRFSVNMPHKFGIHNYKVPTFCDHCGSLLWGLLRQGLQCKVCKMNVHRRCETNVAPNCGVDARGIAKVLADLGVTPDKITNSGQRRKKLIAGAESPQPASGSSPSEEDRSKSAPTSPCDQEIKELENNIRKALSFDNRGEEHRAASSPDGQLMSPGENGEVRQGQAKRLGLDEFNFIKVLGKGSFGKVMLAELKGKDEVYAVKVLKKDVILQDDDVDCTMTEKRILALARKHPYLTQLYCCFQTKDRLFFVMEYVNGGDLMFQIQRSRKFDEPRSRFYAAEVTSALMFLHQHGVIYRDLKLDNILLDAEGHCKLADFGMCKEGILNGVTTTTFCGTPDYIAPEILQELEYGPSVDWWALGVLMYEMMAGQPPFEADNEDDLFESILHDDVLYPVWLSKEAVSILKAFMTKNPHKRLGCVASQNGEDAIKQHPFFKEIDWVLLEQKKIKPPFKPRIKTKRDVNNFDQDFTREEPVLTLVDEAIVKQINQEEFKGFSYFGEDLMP
Experimental: (§1) The inhibition of PKC activity was measured by monitoring the production of phosphorylated peptide by fluorescence polarization at different concentrations of the inhibitor. Reactions were carried out in 96-well plate format with a total volume of 20 μL containing 20 mM HEPES, pH 7.4, 5 mM MgCl2, 0.2 mM CaCl2, 1 mM DTT, 0.02% Brij-35, 0.1 mg/mL phosphatidylserine, 0.02 mg/mL dioleoyl-sn-glycerol and 5 μM each of ATP and the peptide substrate. Compounds were first diluted serially in DMSO and then transferred to a solution containing the above concentrations of HEPES, MgCl2, CaCl2, DTT, and Brij-35 to yield 5× compound solutions in 2% DMSO, which was then added to the reaction solution. Reactions were initiated by the addition of PKC at a typical concentration as described in Table VI, and then allowed to incubate at room temperature for 20 min. At the end of this time, a combination of quench (EDTA) and detection (peptide tracer and antibody) reagents was added using the protocol of Invitrogen P2748.

PKC theta = molecular target: T2, PKC theta (Homo sapiens, UniProt Q04759); assay: PKC assay, fluorescence polarization (Example 2), PKC theta; assay type: biochemical; settings: 5 μM ATP
T2 construct: purchased Upstate Biotechnologies, Temecula, CA 14-444
How it was run: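 Phosphorylated peptide product detected by fluorescence polarization, with EDTA quench plus peptide tracer and antibody. Reaction in 20 mM HEPES pH 7.4, 5 mM MgCl2, 0.2 mM CaCl2, 1 mM DTT, 0.02% Brij-35, phosphatidylserine and dioleoyl-sn-glycerol, with 5 μM ATP and 5 μM peptide. Started with enzyme, 20 min at room temperature.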

PKC mu = molecular target: T3, PKC mu (Homo sapiens, UniProt Q15139); assay: PKC assay, fluorescence polarization (Example 2), PKC mu; assay type: biochemical; settings: 5 μM ATP
T3 sequence (Q15139 1-912): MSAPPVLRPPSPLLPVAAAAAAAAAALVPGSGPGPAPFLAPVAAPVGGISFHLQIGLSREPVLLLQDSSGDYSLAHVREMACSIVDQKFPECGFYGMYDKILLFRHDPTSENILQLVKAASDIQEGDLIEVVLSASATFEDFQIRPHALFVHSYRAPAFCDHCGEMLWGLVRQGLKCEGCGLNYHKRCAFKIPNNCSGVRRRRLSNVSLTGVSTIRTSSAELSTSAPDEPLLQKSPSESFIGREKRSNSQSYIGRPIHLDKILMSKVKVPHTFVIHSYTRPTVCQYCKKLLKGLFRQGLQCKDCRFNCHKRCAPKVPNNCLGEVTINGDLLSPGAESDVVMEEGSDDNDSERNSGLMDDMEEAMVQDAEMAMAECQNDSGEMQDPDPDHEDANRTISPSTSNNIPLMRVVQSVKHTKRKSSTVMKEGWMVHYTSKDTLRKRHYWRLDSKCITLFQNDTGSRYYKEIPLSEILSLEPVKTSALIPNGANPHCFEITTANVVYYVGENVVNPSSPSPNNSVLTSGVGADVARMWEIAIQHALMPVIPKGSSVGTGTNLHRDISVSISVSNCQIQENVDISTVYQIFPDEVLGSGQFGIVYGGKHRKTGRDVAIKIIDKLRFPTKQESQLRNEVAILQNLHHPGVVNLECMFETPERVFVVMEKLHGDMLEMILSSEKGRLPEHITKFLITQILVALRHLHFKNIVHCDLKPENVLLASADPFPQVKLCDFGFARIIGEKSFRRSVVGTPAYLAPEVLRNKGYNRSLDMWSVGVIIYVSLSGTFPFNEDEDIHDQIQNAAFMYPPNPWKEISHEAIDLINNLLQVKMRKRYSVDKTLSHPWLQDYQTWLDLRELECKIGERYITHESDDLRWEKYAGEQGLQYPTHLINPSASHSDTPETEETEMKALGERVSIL
Experimental: as §1, with “P2748. After a 30 min. period of incubation, the amount of phosphorylated peptide generated was measured by fluorescence polarization (Ex=485 nm, Em=535 nm) using a Tecan Polarian instrument.” for “P2748.”

Human primary T cells = assay: IL-2 ELISA, Human Primary T Cell, Anti-CD3+CD28+ (Example 3); assay type: cell-based; settings: Homo sapiens, T-cell, 24 h, anti-CD3+CD28 stimulation
How it was run: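 IL-2 was read by ELISA after stimulation on wells pre-coated with 1 ug/ml αCD3 and 5 μg/ml αCD28. Before this, 100,000 human primary T cells per well spent 1 h at 37 °C with test compound in Yssel's medium. The counter-screen replaced antibody stimulation with PMA (0.5 ng/ml final) and ionomycin (0.1 uM final).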

T2 sequence (Q04759 whole entry): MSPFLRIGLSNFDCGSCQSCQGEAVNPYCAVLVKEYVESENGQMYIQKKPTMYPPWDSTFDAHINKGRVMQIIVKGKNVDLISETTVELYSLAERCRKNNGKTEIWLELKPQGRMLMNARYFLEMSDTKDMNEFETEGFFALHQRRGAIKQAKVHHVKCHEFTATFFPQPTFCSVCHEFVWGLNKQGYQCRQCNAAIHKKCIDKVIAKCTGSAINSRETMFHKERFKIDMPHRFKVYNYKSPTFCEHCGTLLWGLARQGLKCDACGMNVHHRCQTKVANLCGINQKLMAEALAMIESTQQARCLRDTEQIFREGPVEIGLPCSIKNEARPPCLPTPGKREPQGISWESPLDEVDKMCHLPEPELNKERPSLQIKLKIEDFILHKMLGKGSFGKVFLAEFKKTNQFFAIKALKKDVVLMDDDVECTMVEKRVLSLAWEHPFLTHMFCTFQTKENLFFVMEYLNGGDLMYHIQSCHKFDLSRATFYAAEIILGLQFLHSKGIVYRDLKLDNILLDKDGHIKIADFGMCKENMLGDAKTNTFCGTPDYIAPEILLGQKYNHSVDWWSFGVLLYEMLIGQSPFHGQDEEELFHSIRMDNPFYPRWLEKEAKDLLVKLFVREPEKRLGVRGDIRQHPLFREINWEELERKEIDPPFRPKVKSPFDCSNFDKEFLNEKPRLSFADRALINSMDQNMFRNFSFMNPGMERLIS

Compound	IC50 (PKC epsilon) [nM]	IC50 (PKC theta) [nM]	IC50 (PKC mu) [nM]	IC50 (Human primary T cells) [nM]
CN1CCN(c2ccc(Nc3ncc(C(F)(F)F)c(NC4CC(C)(C)N(C)C(C)(C)C4)n3)cc2C(F)(F)F)CC1 [Compound I-38]	506	16	33	196
CSc1nnnn1-c1cccc(Nc2ncc(C(N)=O)c(NC3CC(C)(C)N(C)C(C)(C)C3)n2)c1 [Compound I-456]	49	6.3		350
Cc1ccc(Nc2ncc(C#N)c(NC3CC(C)(C)N(C)C(C)(C)C3)n2)cc1-n1cnnn1 [Compound I-459]	22	0.3		50
CCOc1ccc(Nc2ncc(C#N)c(NC3CC(C)(C)N(C)C(C)(C)C3)n2)cc1-n1nnnc1CC [Compound I-460]	60	0.4		30
Cc1ccc(Nc2ncc(C#N)c(NC3CC(C)(C)NC(C)(C)C3)n2)cc1-n1cnnn1 [Compound I-461]	50	0.8		230
Cc1nnnn1-c1cccc(Nc2ncc(C#N)c(NC3CC(C)(C)NC(C)(C)C3)n2)c1 [Compound I-463]	125	3.6		590
CSc1nnnn1-c1cccc(Nc2ncc(C#N)c(NC3CC(C)(C)NC(C)(C)C3)n2)c1 [Compound I-465]	115	3.4		280
CCOc1ccc(Nc2ncc(C#N)c(NC3CC(C)(C)NC(C)(C)C3)n2)cc1-n1nnnc1CC [Compound I-469]	129	1.5		120

More lines, now with the values ahead:

IC50 (PKC epsilon) [nM]	IC50 (PKC theta) [nM]	IC50 (PKC mu) [nM]	IC50 (Human primary T cells) [nM]	Compound
144	9.66		612	CN1C(C)(C)CC(Nc2nc(Nc3ccc4ncccc4c3)ncc2F)CC1(C)C [II-1]
57.9	2.43		90	CN1C(=O)C(F)(F)Oc2cc(Nc3ncc(F)c(NC4CC(C)(C)N(C)C(C)(C)C4)n3)ccc21 [II-8]
65.8	3.88		210	CCN1C(=O)C(F)(F)Oc2cc(Nc3ncc(F)c(NC4CC(C)(C)N(C)C(C)(C)C4)n3)cnc21 [II-27]
27.1	1.35		26.4	CCN1C(=O)C(F)(F)Oc2cc(Nc3ncc(F)c(NC4CC(C)(C)N(C)C(C)(C)C4)n3)ccc21 [II-31]
102	15.7		224	CN1C(=O)C(C)(C)Oc2cc(Nc3ncc(F)c(NC4CC(C)(C)N(C)C(C)(C)C4)n3)ccc21 [II-34]
159	8.94		142	CCN1C(=O)C(C)(C)Oc2cc(Nc3ncc(F)c(NC4CC(C)(C)N(C)C(C)(C)C4)n3)ccc21 [II-35]
179	1.8		103	CCN1C(=O)C(C)(C)Oc2cc(Nc3ncc(C#N)c(NC4CC(C)(C)N(C)C(C)(C)C4)n3)ccc21 [II-45]
202	0.5		80	CCN1C(=O)C(C)(C)Oc2cc(Nc3ncc(Br)c(NC4CC(C)(C)N(C)C(C)(C)C4)n3)ccc21 [II-128]
2690	28.1		370	CCN1C(=O)C(C)(C)Oc2cc(Nc3ncc(C)c(NC4CC(C)(C)N(C)C(C)(C)C4)n3)ccc21 [II-145]
140	6.1		280	CN1C(C)(C)CC(Nc2nc(Nc3ccc4c(c3)oc(=O)n4CC3CC3)ncc2F)CC1(C)C [II-163]
775	2.4		260	CC1(C)CC(Nc2nc(Nc3ccc4c(c3)OCC(=O)N4CCF)ncc2C#N)CC(C)(C)N1 [II-171]

Source: patent publication US8993585B2, “Cyclic amine substituted pyrimidinediamines as PKC inhibitors” (Rigel Pharmaceuticals, Inc., priority 2007, dated 2015)
